# Test results: PubChem BioAssay (NCI)
#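 Values below derive from 48-hour exposures of cells grown in 96-well plates, with endpoints linearly interpolated between the two concentrations bracketing the appropriate inhibition level. Definition used: TGI = concentration required for complete inhibition of growth.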
# Assays:
# Assay in all cases: NCI tumour cell line growth inhibition, 48 h
# [1] = system: SN12C renal
# [2] = system: RXF 393 renal
# [3] = system: HOP-62 NSCLC
# [4] = system: SK-MEL-28 melanoma
# [5] = system: HL-60(TB) leukemia
# [6] = system: HCT-116 colon
# [7] = system: NCI/ADR-RES ovarian
# [8] = system: MOLT-4 leukemia
# [9] = system: SK-MEL-2 melanoma
# [10] = system: UACC-62 melanoma
# [11] = system: UO-31 renal
# [12] = system: HS 578T breast
# [13] = system: MDA-MB-435
# [14] = system: RPMI-8226 leukemia
# [15] = system: SF-268 CNS
# [16] = system: CAKI-1 renal
# [17] = system: SK-OV-3 ovarian
# [18] = system: NCI-H23 lung
# [19] = system: M14 melanoma
# [20] = system: SK-MEL-5 melanoma
# [21] = system: MCF7 breast
# [22] = system: DU-145 prostate
# [23] = system: SNB-75 CNS
# [24] = system: EKVX NSCLC
# [25] = system: HCC-2998 colon
# [26] = system: HOP-92 NSCLC
# [27] = system: OVCAR-8 ovarian
# [28] = system: U251 CNS
# [29] = system: LOX IMVI melanoma
# [30] = system: CCRF-CEM leukemia
# [31] = system: COLO 205 colon
# [32] = system: OVCAR-5 ovarian
# [33] = system: T-47D breast
# [34] = system: SF-539 CNS
# [35] = system: HT29 colon
# [36] = system: MALME-3M melanoma
# [37] = system: TK-10 renal
# [38] = system: PC-3 prostate
# [39] = system: KM12 colon
# [40] = system: MDA-N
# [41] = system: BT-549 breast
# [42] = system: K-562 leukemia
# [43] = system: 786-0 renal
# [44] = system: MDA-MB-231 breast
# [45] = system: NCI-H522 lung
# [46] = system: HCT-15 colon
# [47] = system: ACHN renal
# [48] = system: SW-620 colon
# [49] = system: OVCAR-3 ovarian
# [50] = system: OVCAR-4 ovarian
# [51] = system: SF-295 CNS
# [52] = system: SR leukemia
# [53] = system: SNB-19 CNS
# [54] = system: NCI-H226 lung
# [55] = system: A549 NSCLC
# [56] = system: IGROV1 ovarian
# [57] = system: UACC-257 melanoma
# [58] = system: A498 renal
# [59] = system: NCI-H460 lung
smiles,measurement,setting,value
CCOC(=O)CC1C(O)C(=O)N(C)C1c1ccccc1 (centres undefined),TGI,[1],> 100 µM
same,TGI,[2],> 100 µM
same,TGI,[3],> 100 µM
same,TGI,[4],> 100 µM
same,TGI,[5],> 100 µM
same,TGI,[6],> 100 µM
same,TGI,[7],> 100 µM
same,TGI,[8],> 100 µM
same,TGI,[9],> 100 µM
same,TGI,[10],> 100 µM
same,TGI,[11],> 100 µM
same,TGI,[12],> 100 µM
same,TGI,[13],> 100 µM
same,TGI,[14],> 100 µM
same,TGI,[15],> 100 µM
same,TGI,[16],> 100 µM
same,TGI,[17],> 100 µM
same,TGI,[18],> 100 µM
same,TGI,[19],> 100 µM
same,TGI,[20],> 100 µM
same,TGI,[21],> 100 µM
same,TGI,[22],> 100 µM
same,TGI,[23],> 100 µM
same,TGI,[24],> 100 µM
same,TGI,[25],> 100 µM
same,TGI,[26],> 100 µM
same,TGI,[27],> 100 µM
same,TGI,[28],> 100 µM
same,TGI,[29],> 100 µM
same,TGI,[30],> 100 µM
same,TGI,[31],> 100 µM
same,TGI,[32],> 100 µM
same,TGI,[33],> 100 µM
same,TGI,[34],> 100 µM
same,TGI,[35],> 100 µM
same,TGI,[36],> 100 µM
same,TGI,[37],> 100 µM
same,TGI,[38],> 100 µM
same,TGI,[39],> 100 µM
same,TGI,[40],> 100 µM
same,TGI,[41],> 100 µM
same,TGI,[42],> 100 µM
same,TGI,[43],> 100 µM
same,TGI,[44],> 100 µM
same,TGI,[45],> 100 µM
same,TGI,[46],> 100 µM
same,TGI,[47],> 100 µM
same,TGI,[48],> 100 µM
same,TGI,[49],> 100 µM
same,TGI,[50],> 100 µM
same,TGI,[51],> 100 µM
same,TGI,[52],> 100 µM
same,TGI,[53],> 100 µM
same,TGI,[54],> 100 µM
same,TGI,[55],> 100 µM
same,TGI,[56],> 100 µM
same,TGI,[57],> 100 µM
CCOC(=O)c1cc(C)n(CN(CCO)Cn2nc(C(=O)OCC)cc2C)n1,TGI,[1],79.2 µM
same,TGI,[2],43.9 µM
same,TGI,[3],62.9 µM
same,TGI,[4],> 100 µM
same,TGI,[5],> 100 µM
same,TGI,[6],37.7 µM
same,TGI,[7],42.5 µM
same,TGI,[8],> 100 µM
same,TGI,[9],36.8 µM
same,TGI,[10],38.2 µM
same,TGI,[11],53.2 µM
same,TGI,[12],> 100 µM
same,TGI,[13],> 100 µM
same,TGI,[14],40.3 µM
same,TGI,[15],> 100 µM
same,TGI,[16],> 100 µM
same,TGI,[17],> 100 µM
same,TGI,[18],53.8 µM
same,TGI,[19],44 µM
same,TGI,[20],> 100 µM
same,TGI,[21],73.7 µM
same,TGI,[58],> 100 µM
same,TGI,[22],71.5 µM
same,TGI,[24],> 100 µM
same,TGI,[25],27.9 µM
same,TGI,[26],> 100 µM
same,TGI,[27],59.9 µM
same,TGI,[28],> 100 µM
same,TGI,[29],70.1 µM
same,TGI,[30],42.2 µM
same,TGI,[31],41.9 µM
same,TGI,[32],54.1 µM
same,TGI,[33],72.3 µM
same,TGI,[34],33.6 µM
same,TGI,[35],47.4 µM
same,TGI,[36],96.1 µM
same,TGI,[37],> 100 µM
same,TGI,[38],> 100 µM
same,TGI,[39],> 100 µM
same,TGI,[40],> 100 µM
same,TGI,[41],68.7 µM
same,TGI,[42],78.3 µM
same,TGI,[43],49.7 µM
same,TGI,[44],91.2 µM
same,TGI,[45],52.1 µM
same,TGI,[46],48.1 µM
same,TGI,[47],55.6 µM
same,TGI,[48],> 100 µM
same,TGI,[49],70.1 µM
same,TGI,[50],> 100 µM
same,TGI,[51],> 100 µM
same,TGI,[52],72.7 µM
same,TGI,[53],> 100 µM
same,TGI,[59],> 100 µM
same,TGI,[55],> 100 µM
same,TGI,[56],> 100 µM
same,TGI,[57],> 100 µM
